The assay concerns SARS-CoV-2 B.1.1.7. Briefly: microbe, parasite or virus in culture. It is filed as cell-based.

Our source for the inhibition of infection values is patent publication US11273163B2, “Antiviral treatment” (priority 2020, dated 2022).

In the case of `CN1CCCC(n2nc(Cc3ccc(Cl)cc3)c3ccccc3c2=O)CC1` (stereo not shown) [Azelastine, 4-[(4-chlorophenyl)methyl]-2-(1-methylazepan-4-yl)phthalazin-1-one], the inhibition of infection entry is “over 90%”.
